From patent US20120065173A1 (priority 2006, published 2012) come the findings set out here.

pIC50: −log10 of the molar value.

This experiment concerns the target T1, recombinant human GR (Homo sapiens, UniProt P04150).
T1 construct: purchased Panvera/Invitrogen P2812 (kit P2893)
T1 sequence (P04150 1-777): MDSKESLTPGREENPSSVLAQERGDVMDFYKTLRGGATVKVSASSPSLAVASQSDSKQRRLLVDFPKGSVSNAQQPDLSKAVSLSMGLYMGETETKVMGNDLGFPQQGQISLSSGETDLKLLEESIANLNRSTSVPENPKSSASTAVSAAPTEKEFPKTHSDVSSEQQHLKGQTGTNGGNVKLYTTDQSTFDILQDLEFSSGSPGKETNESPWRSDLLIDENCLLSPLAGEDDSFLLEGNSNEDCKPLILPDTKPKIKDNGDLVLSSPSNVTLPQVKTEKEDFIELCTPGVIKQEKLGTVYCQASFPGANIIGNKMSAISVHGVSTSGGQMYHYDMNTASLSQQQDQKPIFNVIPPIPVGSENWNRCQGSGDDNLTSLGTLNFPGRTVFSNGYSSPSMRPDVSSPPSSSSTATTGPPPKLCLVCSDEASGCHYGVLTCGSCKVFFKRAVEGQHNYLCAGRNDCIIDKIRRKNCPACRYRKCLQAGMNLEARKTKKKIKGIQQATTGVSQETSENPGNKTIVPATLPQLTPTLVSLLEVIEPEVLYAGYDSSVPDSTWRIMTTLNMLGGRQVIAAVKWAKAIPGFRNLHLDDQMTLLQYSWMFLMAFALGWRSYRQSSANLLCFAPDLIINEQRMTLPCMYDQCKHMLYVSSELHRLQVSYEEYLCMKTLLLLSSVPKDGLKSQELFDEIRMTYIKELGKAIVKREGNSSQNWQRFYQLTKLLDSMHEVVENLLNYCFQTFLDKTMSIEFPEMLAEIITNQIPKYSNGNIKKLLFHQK
Nature of the experiment: Human Glucocorticoid Receptor (GR) Assay, fluorescence polarization (GRhuFL_FP_v2). The note with it: GS Red tracer, 2 hours at room temperature, 100% control 10 μM Dexamethasone. Type of experiment: binding. The procedure: Human Glucocorticoid Receptor (GR) Assay
The assay is based on a commercial kit from Panvera/Invitrogen (Part number P2893). The assay technology is fluorescence polarization. […] The GR and Stabilizing Peptide reagents are stored at −70° C. while the GS Red is stored at −20° C. Also included in the kit are 1M DTT (Panvera, Part number P2325, stored at −20° C.) and GR Screening buffer 10× (Panvera, Part number P2814, stored at −70° C. initially but once thawed stored at room temperature). Avoid repeated freeze/thaws for all reagents. The GR Screening buffer 10× comprises 100 mM potassium phosphate, 200 mM sodium molybdate, 1 mM EDTA and 20% DMSO.
0% control was 100% DMSO and 100% control was 10 μM Dexamethasone. Background solution (8 μL; assay buffer 10×, Stabilizing Peptide, DTT and ice cold MQ water) was added to the background wells. GS Red solution (7 μL; assay buffer 10×, Stabilizing Peptide, DTT, GS Red and ice cold water) was added to all wells except background wells. GR solution (7 μL; assay buffer 10×, Stabilizing Peptide, DTT, GR and ice cold water) was added to all wells. The plate was sealed and incubated in a dark at room temperature for 2 hours.
(In fluorescence polarisation assays a small probe gives low polarisation when free and higher when bound to something large.)
One may read the pIC50 as the IC50 on a negative log10 scale, so that one unit is a factor of ten. As to `C[C@H](NS(=O)(=O)C1CC1)[C@H](Oc1cc2cnn(-c3ccc(F)cc3)c2cc1Cl)c1ccc(F)cc1` (racemic) [Example 35, N-[(1RS,2SR)-1-[6-chloro-1-(4-fluorophenyl)indazol-5-yl]oxy-1-(4-fluorophenyl)propan-2-yl]cyclopropanesulfonamide], the negative logarithm of the IC50 (pIC50) was 8.21. The same measure for `CC(NS(=O)(=O)C1CC1)C(Oc1cc2cnn(-c3ccc(F)cc3)c2cc1Cl)c1ccc(F)cc1` (racemic) [Example 36, N-[(1RS,2RS)-1-[6-chloro-1-(4-fluorophenyl)indazol-5-yl]oxy-1-(4-fluorophenyl)propan-2-yl]cyclopropanesulfonamide]: 8.37; for `C[C@H](NS(=O)(=O)C1CC1)[C@H](Oc1cccc2c1cnn2-c1ccc(F)cc1)c1ccccc1` [Example 3, N-[(1R,2S)-1-[1-(4-fluorophenyl)indazol-4-yl]oxy-1-phenyl-propan-2-yl]cyclopropanesulfonamide]: 7.05. The same measure for `C[C@H](NS(=O)(=O)C1CC1)[C@H](Oc1ccc2c(cnn2-c2ccc(F)nc2)c1)c1ccccc1` [Example 4, N-[(1R,2S)-1-[1-(6-fluoropyridin-3-yl)indazol-5-yl]oxy-1-phenyl-propan-2-yl]cyclopropanesulfonamide]: 8.31; for `C[C@H](NS(=O)(=O)Cc1ccccc1)[C@H](Oc1ccc2c(cnn2-c2ccc(F)cc2)c1)c1ccccc1` [Example 6, N-[(1R,2S)-1-[1-(4-fluorophenyl)indazol-5-yl]oxy-1-phenyl-propan-2-yl]-1-phenyl-methanesulfonamide]: 8.23. As to `C[C@H](NS(=O)(=O)N(C)C)[C@H](Oc1ccc2c(cnn2-c2ccc(F)cc2)c1)c1ccccc1` [Example 8], the negative logarithm of the IC50 (pIC50) is 8.34. The same measure for `C[C@H](NS(=O)(=O)CCN1C(=O)c2ccccc2C1=O)[C@H](Oc1ccc2c(cnn2-c2ccc(F)cc2)c1)c1ccccc1` [Example 10, 2-(1,3-Dioxoisoindol-2-yl)-N-[(1R,2S)-1-[1-(4-fluorophenyl)indazol-5-yl]oxy-1-phenyl-propan-2-yl]ethanesulfonamide]: 8.19. The same measure for `COc1ccc(OCCCS(=O)(=O)N[C@@H](C)[C@H](Oc2ccc3c(cnn3-c3ccc(F)cc3)c2)c2ccccc2)cc1` [Example 11, N-[(1R,2S)-1-[1-(4-fluorophenyl)indazol-5-yl]oxy-1-phenyl-propan-2-yl]-3-(4-methoxyphenoxy)propane-1-sulfonamide]: 8.16. Consider `CCS(=O)(=O)N[C@@H](C)[C@H](Oc1ccc2c(cnn2-c2ccc(F)cc2)c1)c1ccccc1` [Example 12, N-[(1R,2S)-1-[1-(4-fluorophenyl)indazol-5-yl]oxy-1-phenyl-propan-2-yl]ethanesulfonamide], for which the negative logarithm of the IC50 (pIC50) was 8.55. Then `CCCC(C)S(=O)(=O)N[C@@H](C)[C@H](Oc1ccc2c(cnn2-c2ccc(F)cc2)c1)c1ccccc1` (stereo partly drawn) [Example 13, N-[(1R,2S)-1-[1-(4-fluorophenyl)indazol-5-yl]oxy-1-phenyl-propan-2-yl]pentane-2-sulfonamide], with 8.30; and `CCCCS(=O)(=O)N[C@@H](C)[C@H](Oc1ccc2c(cnn2-c2ccc(F)cc2)c1)c1ccccc1` [Example 15], with 8.27; and `C[C@H](NS(=O)(=O)CCC(F)(F)F)[C@H](Oc1ccc2c(cnn2-c2ccc(F)cc2)c1)c1ccccc1` [Example 18, 3,3,3-trifluoro-N-[(1R,2S)-1-[1-(4-fluorophenyl)indazol-5-yl]oxy-1-phenyl-propan-2-yl]propane-1-sulfonamide], with 8.37.

With `COC(=O)CCS(=O)(=O)N[C@@H](C)[C@H](Oc1ccc2c(cnn2-c2ccc(F)cc2)c1)c1ccccc1` [Example 19, Methyl 3-[[(1R,2S)-1-[1-(4-fluorophenyl)indazol-5-yl]oxy-1-phenyl-propan-2-yl]sulfamoyl]propanoate], the negative logarithm of the IC50 (pIC50) was 8.29.

Turning to `C[C@H](NS(=O)(=O)CC1CCCC1)[C@H](Oc1ccc2c(cnn2-c2ccc(F)cc2)c1)c1ccccc1` [Example 20, 1-Cyclopentyl-N-[(1R,2S)-1-[1-(4-fluorophenyl)indazol-5-yl]oxy-1-phenyl-propan-2-yl]methanesulfonamide], the negative-log IC50 (pIC50) is 8.06.

Regarding `C[C@H](NS(=O)(=O)C1CCCC1)[C@H](Oc1ccc2c(cnn2-c2ccc(F)cc2)c1)c1ccccc1` [Example 21, N-[(1R,2S)-1-[1-(4-fluorophenyl)indazol-5-yl]oxy-1-phenyl-propan-2-yl]cyclopentanesulfonamide], the negative logarithm of the IC50 (pIC50) is 8.00. Consider `C[C@H](NS(=O)(=O)CC(F)(F)F)[C@H](Oc1ccc2c(cnn2-c2ccc(F)cc2)c1)c1ccccc1` [Example 22, 2,2,2-trifluoro-N-[(1R,2S)-1-[1-(4-fluorophenyl)indazol-5-yl]oxy-1-phenyl-propan-2-yl]ethanesulfonamide], for which the negative-log IC50 (pIC50) is 8.57. In the case of `C[C@H](NS(=O)(=O)CC1CCCCC1)[C@H](Oc1ccc2c(cnn2-c2ccc(F)cc2)c1)c1ccccc1` [Example 23, 1-Cyclohexyl-N-[(1R,2S)-1-[1-(4-fluorophenyl)indazol-5-yl]oxy-1-phenyl-propan-2-yl]methanesulfonamide], the pIC50 is 8.02. Then `CCCCCCS(=O)(=O)N[C@@H](C)[C@H](Oc1ccc2c(cnn2-c2ccc(F)cc2)c1)c1ccccc1` [Example 24, N-[(1R,2S)-1-[1-(4-fluorophenyl)indazol-5-yl]oxy-1-phenyl-propan-2-yl]hexane-1-sulfonamide], with 8.12. As for `C[C@H](NS(=O)(=O)c1cccnc1)[C@H](Oc1ccc2c(cnn2-c2ccc(F)cc2)c1)c1ccccc1` [Example 25, N-[(1R,2S)-1-[1-(4-fluorophenyl)indazol-5-yl]oxy-1-phenyl-propan-2-yl]pyridine-3-sulfonamide], the pIC50 is 8.15. `Cc1ccc(-n2ncc3cc(O[C@H](c4ccccc4)C(C)(C)NS(=O)(=O)C4CC4)ccc32)cc1` [Example 26, (R)—N-(2-methyl-1-phenyl-1-(1-p-tolyl-1H-indazol-5-yloxy)propan-2-yl)cyclopropanesulfonamide]: the pIC50 is 7.11. The same measure for `CC(C)n1ncc2cc(O[C@H](c3ccccc3)[C@H](C)NS(C)(=O)=O)ccc21` [Example 30, N-[(1R,2S)-1-phenyl-1-(1-propan-2-ylindazol-5-yl)oxy-propan-2-yl]methanesulfonamide]: 6.48; for `C[C@H](NS(=O)(=O)C1CC1)[C@H](Oc1ccc2c(cnn2-c2ccc(F)cc2)c1)c1ccc([S+](C)[O-])cc1` (stereo partly drawn) [Example 31, N-[(1R,2S)-1-[1-(4-fluorophenyl)indazol-5-yl]oxy-1-(4-methylsulfinylphenyl)propan-2-yl]cyclopropanesulfonamide]: 8.19.

In the case of `C[C@H](NS(=O)(=O)C1CC1)[C@H](Oc1ccc2c(cnn2C2CCCC2)c1)c1ccccc1` [Example 32, N-[(1R,2S)-1-(1-cyclopentylindazol-5-yl)oxy-1-phenyl-propan-2-yl]cyclopropanesulfonamide], the pIC50 was 8.12. As to `CC(C)n1ncc2cc(O[C@H](c3ccccc3)[C@H](C)NS(=O)(=O)C3CC3)ccc21` [Example 33, N-[(1R,2S)-1-phenyl-1-(1-propan-2-ylindazol-5-yl)oxy-propan-2-yl]cyclopropanesulfonamide], the pIC50 was 6.77. In the case of `O=S(=O)(NC[C@H](Sc1ccc2c(cnn2-c2ccc(F)cc2)c1)c1ccccc1)C1CC1` [Example 37, (R)—N-[2-[1-(4-fluorophenyl)indazol-5-yl]sulfanyl-2-phenyl-ethyl]cyclopropanesulfonamide], the pIC50 was 7.77. The same measure for `C[C@H](NS(C)(=O)=O)[C@H](Sc1ccc2c(cnn2-c2ccc(F)cc2)c1)c1ccccc1` [Example 38, N-((1R,2S)-1-(1-(4-fluorophenyl)-1H-indazol-5-ylthio)-1-phenylpropan-2-yl)methanesulfonamide]: 8.32; for `C[C@H](NS(C)(=O)=O)[C@@H](c1ccccc1)S(=O)(=O)c1ccc2c(cnn2-c2ccc(F)cc2)c1` [Example 39]: 6.55; for `O=S(=O)(NC[C@H](Oc1ccc2c(cnn2-c2ccc(F)cc2)c1)c1ccccc1)C1CC1` [Example 40, N-[(2R)-2-[1-(4-fluorophenyl)indazol-5-yl]oxy-2-phenyl-ethyl]cyclopropanesulfonamide]: 7.89.
